In article PMC12863032, “Design, synthesis, and anticancer activity of novel isocryptolepine ‘aza’ type acyl thiourea derivatives via combined experimental and computational approach” (Bioscience Reports, 2026):

Key:
Assay type in all cases: biochemical
[1] = molecular target: calf intestinal alkaline phosphatase (CIAP) (Bos taurus, UniProt P19111); assay: Alkaline phosphatase inhibition assay; conditions: p-NPP substrate, Mean ± SEM
Experimental: Spectrophotometric analysis, as previously described in publications, can be used to evaluate the activity of calf intestinal alkaline phosphatase (CIAP). The reaction mixture, including 10 µl of the reagent and 50 mM Tris-HCl buffer (5 mM MgCl2, 0.1 mM ZnCl2, pH 9.5), is preincubated for 10 min following the addition of 5 µl of CIAP (0.025 U/ml). The test mixture was then incubated at 37°C for another half hour after 10 µl of a substrate (0.5 mM p-NPP, para nitrophenyl phosphate disodium salt) was added to initiate the reaction. The alteration in absorbance of released p-nitrophenolate was measured using a 96-well microplate reader (Thermo Scientific Multiskan GO, U.S.A.) at 405 nm. All tests were repeated three times. […] The inhibition activity was calculated according to the following equation:
Inhibition(%)=(Blank−Sample)/Blank×100
IC50 values were designed using 6–8 serial dilutions, and the data were analyzed by nonlinear regression using GraphPad Prism 5 (GraphPad, San Diego, CA, U.S.A.).

carbonic anhydrase = carbonic anhydrase (Bos taurus, UniProt P00921); assay: Carbonic anhydrase inhibition assay (p-nitrophenyl acetate hydrolysis); conditions: bovine enzyme, p-nitrophenyl acetate substrate, Mean ± SEM
Experimental: The inhibition of carbonic anhydrase was assessed as previously outlined, with certain modifications [[60–62]]. The method employed involves the hydrolysis of p-nitrophenyl acetate by carbonic anhydrase, resulting in the formation of yellow p-nitrophenol, which was subsequently analyzed through spectrophotometry. The reaction mixture included 20 µl of inhibitor, 120 µl of 50 mM Tris-Sulfate buffer (pH 7.6 with 0.1 mM ZnCl2), and 20 µl of bovine enzyme (50 U) per well. The components were mixed and preincubated at 25°C for 10 min. A 6 mM stock solution of the substrate p-nitrophenyl acetate was prepared with less than 5% acetonitrile in buffer and utilized fresh for each experiment, with 40 µl added per well to attain a concentration of […] per well. The total reaction volume was adjusted to 200 µl. […] Acetazolamide served as the reference standard. Each concentration underwent three separate evaluations. IC50 values were determined through nonlinear regression analysis utilizing GraphPad Prism 5.0 (GraphPad, San Diego, CA, U.S.A.).
Inhibition(%)=(B−S)/B×100
Here, the B and S are the absorbances for the blank and samples.

mushroom tyrosinase [2] = assay: Mushroom tyrosinase inhibition assay; conditions: L-DOPA substrate, Mean ± SEM
Experimental: The inhibition of mushroom tyrosinase (Sigma Chemical, U.S.A.) was performed in accordance with previously documented methodologies [[57–59]]. Each well of a 96-well microplate received 20 µl of mushroom tyrosinase (30 U/ml), 20 µl of the inhibitor solution, and 140 µl of phosphate buffer (20 mM, pH 6.8). After a 10 min preincubation at room temperature, 20 µl of L-DOPA (3,4-dihydroxyphenylalanine, Sigma Chemical, U.S.A.) at a concentration of 0.85 mM was added, and the test plate was incubated for an additional 20 min at 25°C. The absorbance of dopachrome was later quantified at 475 nm using a microplate reader (SpectraMax ABS, U.S.A.). […] Every experiment was performed three times. IC50 values were calculated by nonlinear regression using GraphPad Prism 5.0 (GraphPad, San Diego, CA U.S.A.).
The % Inhibition of tyrosinase was calculated as following:
Tyrosinase % Inhibition= (Blank−Sample)/B×100 = ( Equation 1 ).

mushroom tyrosinase [3] = assay: Mushroom tyrosinase inhibition assay

Chain of carbonic anhydrase (P00921 whole entry): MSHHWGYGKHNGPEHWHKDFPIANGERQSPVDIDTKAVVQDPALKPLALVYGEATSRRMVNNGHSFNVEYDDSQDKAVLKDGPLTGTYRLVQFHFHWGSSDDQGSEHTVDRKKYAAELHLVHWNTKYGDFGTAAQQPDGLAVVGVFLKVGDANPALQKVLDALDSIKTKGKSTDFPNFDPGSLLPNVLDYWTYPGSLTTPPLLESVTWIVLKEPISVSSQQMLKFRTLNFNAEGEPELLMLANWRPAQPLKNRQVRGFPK
Chain of calf intestinal alkaline phosphatase (CIAP) (P19111 20-533): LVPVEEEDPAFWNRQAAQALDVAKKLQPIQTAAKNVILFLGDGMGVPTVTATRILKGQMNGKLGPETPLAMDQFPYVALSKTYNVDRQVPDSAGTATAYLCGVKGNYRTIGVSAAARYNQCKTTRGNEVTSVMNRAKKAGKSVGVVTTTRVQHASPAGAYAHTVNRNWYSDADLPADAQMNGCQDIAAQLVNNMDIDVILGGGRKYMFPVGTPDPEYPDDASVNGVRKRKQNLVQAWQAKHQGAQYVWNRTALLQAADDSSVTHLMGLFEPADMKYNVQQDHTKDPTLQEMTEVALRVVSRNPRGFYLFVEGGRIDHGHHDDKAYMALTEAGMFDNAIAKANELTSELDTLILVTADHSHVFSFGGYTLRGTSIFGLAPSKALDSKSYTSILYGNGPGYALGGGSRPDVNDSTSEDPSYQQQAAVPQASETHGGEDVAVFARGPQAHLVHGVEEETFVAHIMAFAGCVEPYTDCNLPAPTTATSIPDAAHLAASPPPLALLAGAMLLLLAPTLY

| SMILES | IC50 [1] [µM] | IC50 (carbonic anhydrase) [µM] | IC50 (mushroom tyrosinase [2]) [µM] | Type of tyrosinase inhibition (kinetic studies) (mushroom tyrosinase [3]) |
| --- | --- | --- | --- | --- |
| CCCCC(=O)NC(=S)Nc1ccccc1-c1nc2ccccc2c2nc3ccccc3n12 [Compound 6b, N -((2-(Benzo[4,5]imidazo[1,2-c]quinazolin-6-yl)phenyl)carbamothioyl)pentanamide] | 10.7 ± 0.96 | 2.76 ± 0.56 | 4.88 ± 0.54 |  |
| CCCCCCCCC(=O)NC(=S)Nc1ccccc1-c1nc2ccccc2c2nc3ccccc3n12 [Compound 6f, N -((2-(Benzo[4,5]imidazo[1,2-c]quinazolin-6-yl)phenyl)carbamothioyl)nonanamide] | 7.02 | 7.14 ± 0.95 | 2.05 ± 0.97 |  |
| CCCC(=O)NC(=S)Nc1ccccc1-c1nc2ccccc2c2nc3ccccc3n12 [Compound 6a, N-((2-(Benzo [4, 5]imidazo[1,2 c]quinazolin-6-yl)phenyl)carbamothioyl)butyramide] | 20.6 | 10.9 ± 0.99 | 7.95 ± 0.63 |  |
| CCCCCC(=O)NC(=S)Nc1ccccc1-c1nc2ccccc2c2nc3ccccc3n12 [Compound 6c, N ((2-(Benzo [4, 5]imidazo[1,2 c]quinazolin-6-yl)phenyl)carbamothioyl)hexanamide] | 20.3 | 7.42 ± 0.74 | 2.8 ± 0.85 |  |
| CC(C)(C)C(=O)NC(=S)Nc1ccccc1-c1nc2ccccc2c2nc3ccccc3n12 [Compound 6h, N-((2-(Benzo [4, 5]imidazo[1,2 c]quinazolin-6-yl)phenyl)carbamothioyl)pivalamide] | 7.2 ± 0.63 | 2.33 ± 0.34 | 1.27 ± 0.17 |  |
| CCCCCCC(=O)NC(=S)Nc1ccccc1-c1nc2ccccc2c2nc3ccccc3n12 [Compound 6d, N-((2-(Benzo [4, 5]imidazo[1,2 c]quinazolin-6-yl)phenyl)carbamothioyl)heptanamide] | 16.6 ± 0.98 | 3.51 ± 0.63 | 0.921 ± 0.07 |  |
| CCCCCCCC(=O)NC(=S)Nc1ccccc1-c1nc2ccccc2c2nc3ccccc3n12 [Compound 6e, N-((2-(Benzo [4, 5]imidazo[1,2 c]quinazolin-6-yl)phenyl)carbamothioyl)octanamide] | 7.77 | 1.08 ± 0.42 | 1.85 ± 0.886 |  |
| CCCCCCCCCC(=O)NC(=S)Nc1ccccc1-c1nc2ccccc2c2nc3ccccc3n12 [Compound 6g, N -((2-(Benzo[4,5]imidazo[1,2-c]quinazolin-6-yl)phenyl)carbamothioyl)decanamide] | 2.81 ± 0.42 | 0.708 ± 0.02 | 0.832 ± 0.03 | competitive inhibition |
